According to patent US9745339B2 (GRAFFINITY PHARMACEUTICALS GMBH, priority 2012, dated 2017):
pKd: −log10 of the molar value.

Assays:
host cell proteins (HCP) = test: Microtiter plate chromatography of resins: binding of host cell proteins; parameters: species or system CHO cell culture
Experimental: Flowthrough from protein A chromatography (referred to as host cell proteins) was derived from the supernatant of antibody-producing CHO cell culture in serum-free medium. Coomassie brilliant blue dye reagent for Bradford assay was purchased from Thermo Scientific (Bonn/Germany).
(§1) Resins were assessed in packed mode by microtiter plate chromatography. For each column, approximately 30 μl of resin were transferred to a 384-well filter plate and sealed with appropriate top fits. Columns with rProtein A SEPHAROSE 4 FF and MABSORBENT A2P HF were included as controls.
(§2) Either 3.3 cv of whole IgGs dissolved at 0.5 mg ml^−1 in PBS or undiluted host cell proteins (HCP) were injected onto columns.
(§3) Unbound protein was washed from columns with 5 cv of PBS prior to elution with 5 cv of glycine buffer at pH 2.5. […] During injection of samples, speed was reduced to 10 g and centrifugation time increased to 5-10 min. Effluent fractions were collected in 384-well plates and concentrations of protein were analyzed by Bradford assay. Protein masses mi, mft and me (see below) were calculated as the product of fraction volume and measured protein concentration.
(§4) The fraction of bound protein was calculated as the difference between the total mass of protein injected mi and the mass of protein detected in the flowthrough mft, divided by the total mass of protein injected.
(§5) The fraction of bound protein and the yield of protein were calculated for each resin based on data for whole IgG-antibodies. In the case of host cell proteins, only the fraction of bound protein is given. Selectivity of resins was calculated from data for Bevacizumab whole IgG and host cell proteins. Due to limited experimental precision, selectivity was truncated for values beyond 10.

Tocilizumab = test: Microtiter plate chromatography of resins: binding and elution of Tocilizumab
Experimental: as §1, §2, §3, §4
(§6) The yield of protein was calculated as the mass of protein eluted me, divided by the mass of protein injected mi.
as §5

Cetuximab = test: Microtiter plate chromatography of resins: binding and elution of Cetuximab
Experimental: as §1, §2, §3, §4, §6, §5

Bevacizumab [1] = test: Microtiter plate chromatography of resins: binding and elution of Bevacizumab; details: fraction of bound Bevacizumab divided by fraction of bound HCP; truncated for values beyond 10
Experimental: as §1, §2, §3, §4, §6
(§7) The selectivity of resins was calculated as the fraction of bound Bevacizumab antibody BAb, divided by the fraction of bound host cell proteins BHCP.
as §5

Bevacizumab [2] = target: T1, Bevacizumab (Homo sapiens, UniProt P01857); test: as above
T1 construct: 0.5 mg/ml IgG in PBS pH 7.3; ligand immobilized on SEPHAR; Bevacizumab Yield; other: mass eluted (glycine pH 2.5) / mass injected; kd (dissociation constant, Langmuir isotherm); other: Bevacizumab 0.05-5 mg/ml in PBS pH 7.3, 25° C., at least 3 h; qm (maximum capacity); other: mg Bevacizumab per ml of resin; Langmuir isotherm; t0; fused on or other part: Humanized anti-VEGF-A VH domain joined N-terminally to the IGHG1 constant region (engineered, no UniProt entry)
Experimental: as §1, §2, §3, §4, §6, §7, §5

Palivizumab = test: Microtiter plate chromatography of resins: binding and elution of Palivizumab
Experimental: as §1, §2, §3, §4, §6, §5

[3] = system: poly-IgG from human serum (h-poly-IgG); test: Microtiter plate chromatography of resins: binding and elution of human poly-IgG
Experimental: as §1, §2, §3, §4, §6, §5

Bevacizumab [4] = target: T1, Bevacizumab; test: Langmuir isotherms by batch adsorption; assay type: binding; details: read-out: kd (dissociation constant, Langmuir isotherm); Bevacizumab 0.05-5 mg/ml in PBS pH 7.3, 25° C., at least 3 h
Experimental: Experiments were performed with Bevacizumab as antibody. Parameters of Langmuir isotherms for purified antibody were determined by batch adsorption experiments in 96-well microtiter plates. In each well, 10 μl of sorbent slurry (50% v/v) were mixed with 100 μl of protein solution. Initial concentrations varied from 0.05-5 mg/ml in phosphate-buffered saline (0.15 M NaCl, 20 mM phosphate buffer, pH 7.3; PBS). Reactions were agitated vigorously at 25° C. for at least 3 h. Afterwards, antibody concentration in the supernatants were measured by Bradford assay. Data was evaluated by direct fitting of the values with the Langmuir isotherm equation (1).
Parameters of Langmuir isotherms, i.e. dissociation constants Kd and maximum capacities qm, were determined from the measured concentrations in the supernatants. Parameters were estimated by numerical fitting of the model equation derived by Chase (1)

[5] = fraction of injected undiluted host cell proteins bound
[6] = fraction of injected protein bound, 0.5 mg/ml IgG in PBS pH 7.3
[7] = fraction of injected protein bound, 0.5 mg/ml IgG in PBS pH 7.3, ligand immobilized on SEPHAROSE 4 FF
[8] = mass eluted (glycine pH 2.5) / mass injected
[9] = L55-73: estimated values based on the knowledge obtained from L01-L54

Row | Tocilizumab Bound (Tocilizumab; [6]) [%] | Cetuximab Bound (Cetuximab; [6]) [%] | Selectivity (Bevacizumab [1]) | Bevacizumab Bound (Bevacizumab [2]; [7]) [%] | Bevacizumab Yield (Bevacizumab [2]; [8]) [%] | Palivizumab Bound (Palivizumab; [6]) [%] | h-poly-IgG Bound [3, 6] [%] | pKd (Bevacizumab [4]) | h-poly-IgG Bound [3, 9] [%] | Tocilizumab Bound (Tocilizumab; [9]) [%] | Cetuximab Bound (Cetuximab; [9]) [%] | Bevacizumab Bound (Bevacizumab [2]; [9]) [%] | Bevacizumab Yield (Bevacizumab [2]; [9]) [%] | Palivizumab Bound (Palivizumab; [9]) [%] | SMILES | HCP Bound (host cell proteins (HCP); [5]) [%] | HCP Bound (host cell proteins (HCP); [9]) [%]
1 | 99 | 99 | 2.2 | 100 | 92 | 78 | – | – | – | – | – | – | – | – | Cn1nc(C(=O)Nc2ccc3c(c2)C(=O)N(CCCN)CCO3)c2ccccc21 [Ligand L03, 4-(3-Amino-1-propyl)-7-[(1-methylindazol-3-yl)carboxamido]-2,3,4,5-tetrahydrobenzo[f][1,4]oxazepin-5-one] | 45 | –
2 | – | – | 3.2 | 100 | 84 | 74 | – | – | – | – | – | – | – | – | Cn1nc(NC(=O)c2ccc3c(c2)nnn3CCCN)c2ccccc21 [Ligand L06, 1-(3-Amino-1-propyl)benzotriazole-5-carboxylic acid N-(1-methylindazol-3-yl) amide] | 31 | –
3 | 100 | 100 | 2.6 | 100 | 100 | 91 | 95 | – | – | – | – | – | – | – | NCCCn1cnc2cc(C(=O)Nc3nc4ccccc4o3)ccc21 [Ligand L08, 1-(3-Amino-1-propyl)benzimidazole-5-carboxylic acid N-(benzoxazol-2-yl) amide] | 39 | –
4 | 100 | 100 | 2.6 | 100 | 97 | 100 | 100 | – | – | – | – | – | – | – | NCCCn1cnc2cc(C(=O)Nc3nnc(-c4ccc5c(c4)OCO5)s3)ccc21 [Ligand L09, 1-(3-Amino-1-propyl)benzimidazole-5-carboxylic acid N-[2-(3,4-methylenedioxyphenyl)-1,3,4-thiadiazol-5-yl] amide] | 39 | –
5 | 100 | 100 | 2.2 | 100 | 100 | 100 | 100 | – | – | – | – | – | – | – | NCCCn1cnc2cc(C(=O)Nc3nc4ccccc4s3)ccc21 [Ligand L10, 1-(3-Amino-1-propyl)benzimidazole-5-carboxylic acid N-(benzothiazol-2-yl) amide] | 45 | –
6 | 96 | 98 | 2.0 | 100 | 99 | 61 | 88 | – | – | – | – | – | – | – | Cc1cc(NC(=O)c2ccc3c(c2)ncn3CCCN)nn1-c1ccccc1 [Ligand L11, 1-(3-Amino-1-propyl)benzimidazole-5-carboxylic acid N-(5-methyl-1-phenylpyrazol-3-yl) amide] | 51 | –
7 | 100 | 100 | 2.5 | 100 | 104 | 100 | 100 | – | – | – | – | – | – | – | CCSc1nnc(NC(=O)c2ccc3c(c2)ncn3CCCN)s1 [Ligand L12, 1-(3-Amino-1-propyl)benzimidazole-5-carboxylic acid N-(2-ethylthio-1,3,4-thiadiazol-5-yl) amide] | 40 | –
8 | 100 | 100 | 2.6 | 100 | 91 | 100 | 100 | – | – | – | – | – | – | – | Cc1csc(NC(=O)c2ccc3c(c2)ncn3CCCN)n1 [Ligand L15, 1-(3-Amino-1-propyl)benzimidazole-5-carboxylic acid N-(4-methylthiazol-2-yl) amide] | 39 | –
9 | 100 | 100 | 2.7 | 100 | 96 | 87 | 88 | – | – | – | – | – | – | – | NCCCn1cnc2cc(C(=O)Nc3nccs3)ccc21 [Ligand L16, 1-(3-Amino-1-propyl)benzimidazole-5-carboxylic acid N-(thiazol-2-yl) amide] | 37 | –
10 | 100 | 100 | 2.9 | 100 | 100 | 88 | 89 | – | – | – | – | – | – | – | Cc1cnc(NC(=O)c2ccc3c(c2)ncn3CCCN)s1 [Ligand L17, 1-(3-Amino-1-propyl)benzimidazole-5-carboxylic acid N-(5-methylthiazol-2-yl) amide] | 34 | –
11 | 100 | 100 | 3.4 | 100 | 102 | 100 | 100 | – | – | – | – | – | – | – | NCCCNc1ccc(C(=O)Nc2nnc(-c3ccco3)s2)cc1[N+](=O)[O-] [Ligand L18, 4-[(3-Amino-1-propyl)amino]-3-nitrobenzoic acid N-[5-(2-furyl)-1,3,4-thiadiazol-2-yl]amide] | 29 | –
12 | 100 | 100 | 2.9 | 100 | 100 | 100 | 100 | – | – | – | – | – | – | – | NCCCOc1ccc(C(=O)Nc2nnc(-c3ccco3)s2)cc1 [Ligand L20, 4-[(1-Amino-3-propyl)oxy]benzoic acid N-[5-(2-furyl)-1,3,4-thiadiazol-2-yl] amide] | 35 | –
13 | 98 | 100 | 10.0 | 100 | 100 | 85 | 82 | – | – | – | – | – | – | – | NCCCn1cnc2cc(C(=O)Nc3nnc(-c4ccncc4)s3)ccc21 [Ligand L21, 1-(3-Amino-1-propyl)benzimidazole-5-carboxylic acid N-[5-(4-pyridyl)-1,3,4-thiadiazol-2-yl]amide] | 2 | –
14 | 100 | 100 | 3.3 | 100 | 104 | 100 | 100 | – | – | – | – | – | – | – | NCCCn1cnc2cc(C(=O)Nc3nc(-c4ccccc4)ns3)ccc21 [Ligand L22, 1-(3-Amino-1-propyl)benzimidazole-5-carboxylic acid N-(3-phenyl-1,2,4-thiadiazol-5-yl) amide] | 30 | –
15 | – | – | – | 100 | – | – | – | 3.15 | – | – | – | – | – | – | NCCCn1cc(-c2ccc(C(=O)Nc3nnc(-c4ccco4)s3)cc2)nn1 [Ligand L48] | – | –
16 | – | – | – | – | – | – | – | – | >80 | >90 | >95 | 100 | >80 | >60 | Cc1nc2cc(C(=O)Nc3nnc(-c4ncco4)s3)ccc2n1CCCN [Ligand L73, 1-(3-Amino-1-propyl)-2-methylbenzimidazole-5-carboxylic acid N-[5-(2-oxazolyl)-1,3,4-thiadiazol-2-yl] amide] | – | <20
